Data reported in patent EP1232756A1, “DRUGS, DRINKS OR FOODS” (Takara Shuzo Co, Ltd., priority 1999, dated 2001).
Marks after values point to notes of the source that are not given here.

Legend:
Assay type in all cases: in vivo
female SD rat [1] = assay: Agonistic (estrogenic) activity: immature rat uterine weight (Example 1(2)); settings: for Uterine weight / Ratio: substance alone; for Uterine weight: once a day for 3 days, mean ± standard error; for Ratio: uterine weight vs control group (100%), 3 days
Protocol: A 17-days old female SD rat (purchased from Japan SLC) was received together with its mother, weaned at 20 days of age, and subjected to experiments from the next day. Five ml per kg body weight of EGCG (Sigma) or bisphenol-A (hereinafter referred to as BisA, Tokyo Kasei Kogyo) suspended in peanut oil (Nacalai Tesque) was administered orally and forcibly. Peanut oil was administered to a control rat in a similar manner. Administration was carried out once a day for three successive days. The uterine removed 24 hours after the last administration was weighed. BisA or EGCG (80 or 800 mg/kg) was administered. […]

female SD rat [2] = assay: Antagonistic (anti-estrogenic) activity of EGCG against bisphenol-A, immature rat uterine weight (Example 1(3)); settings: BisA 800 mg/kg + EGCG 800 mg/kg oral at the same time
Protocol: A 17-days old female SD rat (purchased from Japan SLC) was received together with its mother, weaned at 20 days of age, and subjected to experiments from the next day. Five ml per kg body weight of EGCG (Sigma) or bisphenol-A (hereinafter referred to as BisA, Tokyo Kasei Kogyo) suspended in peanut oil (Nacalai Tesque) was administered orally and forcibly. Peanut oil was administered to a control rat in a similar manner. Administration was carried out once a day for three successive days. The uterine removed 24 hours after the last administration was weighed. BisA (800 mg/kg) and EGCG (800 mg/kg) were administered at the same time.

female SD rat [3] = assay: Anti-estrogenic activity of solution of EGCG in ethanol against bisphenol-A, rat uterine weight (Example 2); settings: for Uterine weight: 30 minutes before BisA; for Ratio: vs control (100%)
Protocol: A 17-days old female SD rat (purchased from Japan SLC) was received together with its mother, weaned at 20 days of age, and subjected to experiments from the next day. BisA was weighed such that it would be administered at 200 or 40 mg/kg and dissolved in a small volume of ethanol. Peanut oil was added thereto to result in a final ethanol concentration of 5%. The resulting mixture was orally administered for three successive days. The uterine removed on the next day was weighed. EGCG was dissolved by adding ethanol and water was then added thereto to adjust the final ethanol concentration to 10%. The solution was orally administered on the day before the administration of BisA and 30 minutes before each of the successive administrations of BisA.

female SD rat [4] = assay: Anti-estrogenic activity of solution of EGCG in ethanol against 4-nonylphenol, rat uterine weight (Example 3); settings: NP 50 mg/kg oral + EGCG 200 mg/kg oral in 10% ethanol
Protocol: A 16-days old female SD rat (Japan SLC) was purchased together with its mother, weaned at 19 days of age, and subjected to experiments from the next day.
4-Nonylphenol (hereinafter referred to as NP) was weighed such that it would be administered at 50 mg/kg and diluted by adding peanut oil thereto. The resulting mixture was orally administered for three successive days. The uterine removed on the day after the third administration day was weighed. EGCG was dissolved by adding ethanol and water was then added thereto to adjust the final ethanol concentration to 10%. The solution was orally administered 90 minutes before the administration of NP.

female SD rat [5] = assay: Effect of ethanol concentration on anti-estrogenic activity of EGCG, rat uterine weight (Example 4); settings: for Uterine weight: 90 minutes before BisA; for Ratio: vs control (100%)
Protocol: (§1) A 16-days old female SD rat (Japan SLC) was purchased together with its mother, weaned at 19 days of age, and subjected to experiments from the next day. BisA was weighed such that it would be administered at 40 mg/kg and dissolved in a small volume of ethanol. Peanut oil was added thereto to result in a final ethanol concentration of 5%. The resulting mixture was subcutaneously administered for three successive days. The uterine removed on the day after the third administration day was weighed. EGCG (200 mg/kg) was dissolved by adding ethanol and water was then added thereto to adjust the final ethanol concentration to 10, 5, 1, 0.5 or 0%. The solution was orally administered 90 minutes before the administration of BisA.

female SD rat [6] = assay: Anti-estrogenic activity of solution of EGCG in ethanol, subcutaneous BisA, rat uterine weight (Example 5); settings: for Uterine weight / Ratio: 30 minutes before BisA; for Ratio: vs control (100%)
Protocol: as §1, with “10” for “10, 5, 1, 0.5”, “30” for “90”

female SD rat [7] = assay: Dose dependency of anti-estrogenic activity of solution of EGCG in ethanol, rat uterine weight (Example 6); settings: for Uterine weight: 30 minutes before BisA; for Ratio: vs control (100%)
Protocol: as §1, with “subcutaneously or orally” for “subcutaneously”, “EGCG” for “EGCG (200 mg/kg)”, “10%.” for “10, 5, 1, 0.5 or 0%.”, “30” for “90”

[8] = BisA 40 mg/kg oral + EGCG 100 mg/kg oral in 10% ethanol
[9] = BisA 200 mg/kg oral + EGCG 100 mg/kg oral in 10% ethanol
[10] = BisA 200 mg/kg oral + EGCG 200 mg/kg oral in 10% ethanol
[11] = BisA 40 mg/kg s.c. + EGCG 200 mg/kg oral in 0 % ethanol
[12] = BisA 40 mg/kg s.c. + EGCG 200 mg/kg oral in 0.5% ethanol
[13] = BisA 40 mg/kg s.c. + EGCG 200 mg/kg oral in 1 % ethanol
[14] = BisA 40 mg/kg s.c. + EGCG 200 mg/kg oral in 5 % ethanol
[15] = BisA 40 mg/kg s.c. + EGCG 200 mg/kg oral in 10 % ethanol
[16] = BisA 40 mg/kg s.c. + EGCG 200 mg/kg oral in 0% ethanol
[17] = BisA 40 mg/kg s.c. + EGCG 200 mg/kg oral in 10% ethanol
[18] = BisA 40 mg/kg oral + EGCG 40 mg/kg oral in 10% ethanol
[19] = BisA 40 mg/kg subcutaneous + EGCG 40 mg/kg oral in 10% ethanol
[20] = BisA 40 mg/kg subcutaneous + EGCG 100 mg/kg oral in 10% ethanol

Q: What does the source list for `O=C(O[C@@H]1Cc2c(O)cc(O)cc2O[C@@H]1c1cc(O)c(O)c(O)c1)c1cc(O)c(O)c(O)c1` [EGCG, epigallocatechin gallate]?
A: increased uterine weight (in words) (female SD rat [1]; EGCG alone, 80 or 800 mg/kg oral): did not result in increased uterine weight; Uterine weight (female SD rat [1]; 80 mg/kg oral in peanut oil): 42.2 ± 1.7 mg; Uterine weight (female SD rat [1]; 800 mg/kg oral in peanut oil): 39.3 ± 3.2 mg; Ratio (female SD rat [1]; 80 mg/kg oral): 104%; Ratio (female SD rat [1]; 800 mg/kg oral): 97%; Uterine weight (female SD rat [2]; in peanut oil, mean ± standard error): 43.0 ± 2.7 mg; Ratio (female SD rat [2]; vs control (100%)): 116%; Uterine weight (female SD rat [3]; [8]): 41.2 ± 2.2 mg; Uterine weight (female SD rat [3]; [9]): 47.4 ± 2.6 mg; Uterine weight (female SD rat [3]; [10]): 39.8 ± 4.5 mg; Ratio (female SD rat [3]; [8]): 95%; Ratio (female SD rat [3]; [9]): 109%; Ratio (female SD rat [3]; [10]): 92%; Uterine weight (female SD rat [4]; 90 minutes before NP): 33.7 ± 1.9 mg; Ratio (female SD rat [4]; vs control (100%)): 109%; Uterine weight (female SD rat [5]; [11]): 43.3 ± 1.8 mg; Uterine weight (female SD rat [5]; [12]): 40.9 ± 1.8 mg; Uterine weight (female SD rat [5]; [13]): 40.1 ± 2.0 mg; Uterine weight (female SD rat [5]; [14]): 37.6 ± 1.8 mg; Uterine weight (female SD rat [5]; [15]): 37.0 ± 1.3 mg; Ratio (female SD rat [5]; [11]): 161%; Ratio (female SD rat [5]; [12]): 152%; Ratio (female SD rat [5]; [13]): 149%; Ratio (female SD rat [5]; [14]): 140%; Ratio (female SD rat [5]; [15]): 138%; Uterine weight (female SD rat [6]; [16]): 50.9 ± 2.2 mg; Uterine weight (female SD rat [6]; [17]): 36.4 ± 1.4 mg; suppression of the increase in uterine weight (in words) (female SD rat [6]; BisA 40 mg/kg s.c. + EGCG 200 mg/kg oral without ethanol): the increase was not suppressed; Ratio (female SD rat [6]; [16]): 165%; Ratio (female SD rat [6]; [17]): 118%; Uterine weight (female SD rat [7]; [18]): 34.8 ± 2.8 mg; Uterine weight (female SD rat [7]; [8]): 33.0 ± 4.4 mg; Uterine weight (female SD rat [7]; [19]): 44.4 ± 1.5 mg; Uterine weight (female SD rat [7]; [20]): 39.6 ± 1.0 mg; Ratio (female SD rat [7]; [18]): 106%; Ratio (female SD rat [7]; [8]): 101** %; Ratio (female SD rat [7]; [19]): 136%; Ratio (female SD rat [7]; [20]): 121*** %
